Drawing on patent US8236963B2, “Tricyclic spiro derivatives as CRTH2 modulators” (Merck Serono SA, priority 2005, dated 2012), this text covers inhibition, Ki and inhibition in vivo for 14 compounds.

The target in assay [1] is T1, CRTH2 (Homo sapiens, UniProt Q9Y5Y4).
T1 sequence (Q9Y5Y4 1-395): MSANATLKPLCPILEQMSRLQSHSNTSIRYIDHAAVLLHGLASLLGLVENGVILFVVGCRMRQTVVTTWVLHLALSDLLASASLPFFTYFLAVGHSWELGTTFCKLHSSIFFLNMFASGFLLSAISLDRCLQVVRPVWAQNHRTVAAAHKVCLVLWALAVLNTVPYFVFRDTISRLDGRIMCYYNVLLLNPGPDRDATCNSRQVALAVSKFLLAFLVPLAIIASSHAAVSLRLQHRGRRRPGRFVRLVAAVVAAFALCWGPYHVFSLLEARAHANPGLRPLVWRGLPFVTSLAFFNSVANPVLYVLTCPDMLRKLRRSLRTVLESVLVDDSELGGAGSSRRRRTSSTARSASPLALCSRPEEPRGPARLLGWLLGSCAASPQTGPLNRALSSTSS
The assay is described as follows: Radioligand binding assay ([3H]PGD2, hCRTH2 HEK293 (EBNA) cell membranes). Set-up: expressed in transfected cells; host or cells: HEK293 (EBNA) cells, membrane preparation. To be noted: 1.5 nM [3H]PGD2, 10 μg hCRTH2 HEK293 (EBNA) membrane protein, 60 min at room temperature. The source says:
Human CRTH2 cDNA was amplified by PCR using a human urinary bladder cDNA library as a template and specific primers containing HindIII and BamHI restriction sites for cloning into the pCEP4 vector (Invitrogen). The vector construction is described in detail in Sawyer et al., Br. J. Pharmocol 2002, 137, 1163-72. The nucleotide sequence of the cloned cDNA was identical the previously reported hCRTH2 sequence (Nagata et al, 1999, J. Immunol. 162, 1278-1286).
HEK293 (EBNA) cells were transfected with the pCEP4-hCRTH2 construct using the calcium phosphate technique. Cells were maintained in culture at 37° C. in an atmosphere of 5% CO2 in Dulbecco's modified Eagle's F12 medium (Invitrogen), containing 10% heat-inactivated foetal calf serum (TerraCell International, Canada), 2 mM Glutamine, 100 units/ml of penicillin and 100 μg/ml streptomycin (Invitrogen). 48 hours after the transfection, cells were grown in presence of 300 μg/ml of Hygromycin B (Invitrogen) for 4 weeks and antibiotic resistant cells were amplified for cell membrane preparation.
Adherent HEK293 (EBNA) cells expressing hCRTH2 were cultured in 225 cm^2 cell culture flasks (Corning, USA) in 30 ml of medium. After two rinses of phosphate buffered saline (PBS), cells were harvested in 10 ml of PBS containing 1 mM EDTA, centrifuged at 500×g for 5 min at 4° C. and frozen at −80° C. The pellet was re-suspended in 50 mM Tris-HCl, pH 7.4, 2 mM EDTA, 250 mM Sucrose, containing protease inhibitor cocktail tablets, (Complete EDTA-free, Roche, Germany) and incubated 30 min at 4° C. Cells were disrupted by nitrogen cavitation (Parr Instruments, USA) at 4° C. (800 p.s.i. for 30 min), and centrifuged at 500×g for 10 min at 4° C. Pellet containing nuclei and cellular debris was discarded and supernatant was centrifuged 60 min at 4° C. at 45000×g. Membrane pellet was re-suspended in storage buffer (10 mM HEPES/KOH pH 7.4, 1 mM EDTA, 250 mM sucrose, protease inhibitor cocktail tablets) using Dounce homogenization and frozen in liquid nitrogen, and stored at −80° C.
The inhibitory activity can be investigated by a radioligand binding assay (Sawyer et al., Br. J. Pharmocol 2002, 137, 1163-72). The radioligand binding assay was performed at room temperature in binding buffer (10 mM HEPES/KOH pH […], with protease inhibitor cocktail tablets), containing 1.5 nM [^3H]PGD2 (Amersham, 156 Cie/mmol), and 10 μg of hCRTH2 HEK293 (EBNA) cell membrane protein in a final volume of 100 μl in 96 well plates (Corning, USA). Non-specific binding was determined in the presence of 1 μM PGD2 (Cayman, USA). Competing spiro-indolinones were diluted in dimethylsulphoxide so that the total volume of dimethylsulfoxide was kept constant at 1% dimethylsulphoxide (Me2SO) Serial dilutions of 100 μM and […] were prepared. 10 μl each of these spiro-indolinone stock solutions were added. Incubation (60 min at room temperature) was terminated by rapid filtration through 96 wells hydrophobic GF/C Unifilter plates (Whatman, USA). Filters were washed twice with 250 μl of Tris-HCl pH 7.4, 10 mM MnCl2, and residual radioligand bound to the filters was mixed to 100 μl of liquid scintillation cocktail (Optiphase Supermix, Perkin Elmer, USA) and binding activity was determined by counting residual radioligand using a 1450 Micro-beta scintillation counter (Wallac, UK). The following representative compounds were tested. […]

Assay [2] has as its target T1, CRTH2. Briefly: Determination of Ki (radioligand binding assay, equilibrium competition against [3H]PGD2). The arrangement: expressed in transfected cells; host or cells: HEK293 (EBNA) cells, membrane preparation. To be noted: average of at least three independent dose response experiments. On the procedure:
The inhibitory activity can be investigated by a radioligand binding assay (Sawyer et al., Br. J. Pharmocol 2002, 137, 1163-72). The radioligand binding assay was performed at room temperature in binding buffer (10 mM HEPES/KOH pH […], with protease inhibitor cocktail tablets), containing 1.5 nM [^3H]PGD2 (Amersham, 156 Cie/mmol), and 10 μg of hCRTH2 HEK293 (EBNA) cell membrane protein in a final volume of 100 μl in 96 well plates (Corning, USA). Non-specific binding was determined in the presence of 1 μM PGD2 (Cayman, USA). Competing spiro-indolinones were diluted in dimethylsulphoxide so that the total volume of dimethylsulfoxide was kept constant at 1% dimethylsulphoxide (Me2SO) Serial dilutions of 100 μM and […] were prepared. 10 μl each of these spiro-indolinone stock solutions were added. Incubation (60 min at room temperature) was terminated by rapid filtration through 96 wells hydrophobic GF/C Unifilter plates (Whatman, USA). Filters were washed twice with 250 μl of Tris-HCl pH 7.4, 10 mM MnCl2, and residual radioligand bound to the filters was mixed to 100 μl of liquid scintillation cocktail (Optiphase Supermix, Perkin Elmer, USA) and binding activity was determined by counting residual radioligand using a 1450 Micro-beta scintillation counter (Wallac, UK). The following representative compounds were tested. All inhibited the binding of PGD2 to CRTH2 by more than 70%. • (1′-benzyl-5-chloro-2,2′,5′-trioxospiro[indole-3,3′-pyrrolidin]-1(2H)-yl)acetic acid • (1′-benzyl-5-fluoro-2,2′,5′-trioxospiro[indole-3,3′-pyrrolidin]-1(2H)-yl)acetic acid • 4-(1′-allyl-5-chloro-2,2′,5′-trioxospiro[indole-3,3′-pyrrolidin]-1(2H)-yl)butanoic acid • [5-chloro-1′-(2-methoxyethyl)-2,2′,5′-trioxospiro[indole-3,3′-pyrrolidin]-1(2H)-yl]acetic acid • 4-(1′-benzyl-5-chloro-2,2′,5′-trioxospiro[indole-3,3′-pyrrolidin]-1(2H)-yl)butanoic acid • (1′-benzyl-5-methoxy-2,2′,5′-trioxospiro[indole-3,3′-pyrrolidin]-1(2H)-yl)acetic acid • [5-fluoro-1′-[(2-methoxyethoxy)methyl]-2,2′,5′-trioxospiro[indole-3,3′-pyrrolidin]-1(2H)-yl]acetic acid • 4-(1′-allyl-5-fluoro-2,2′,5′-trioxospiro[indole-3,3′-pyrrolidin]-1(2H)-yl)butanoic acid • 4-(1′-benzyl-5-fluoro-2,2′,5′-trioxospiro[indole-3,3′-pyrrolidin]-1(2H)-yl)butanoic acid
Ki values were determined by equilibrium competition binding experiments against [^3H]PGD2. Ki values were calculated from the formula below and represent the average of at least three independent dose response experiments. The Ki values give the ligand concentrations necessary to inhibit 50% of the binding of [^3H]PGD2 to CRTH2. Ki=IC50/(1+[Concentration of Ligand]/Kd)]
All experiments were performed in 96 well plates, in a final volume of 100 μl according to the above described filtration assay. The concentration of membranes and 3 [H]PGD2, as well as the positive and negative controls were identical to the conditions described above.

In assay [3] the test system is DK-PGD2-induced vascular leakage. The assay is described as follows: Model of DK-PGD2-induced vascular leakage in mice. In kind it is in vivo, Balb/c mice. To be noted: Mus musculus, 1.5 h; dose of 30 mg/kg; 30 min before DK-PGD2 challenge; Evans blue extravasation. The method, then: This test is described in Takeshita et al. (2004). Balb/c mice (Elevage Janvier) (8 week old) received an intradermal injection of DK-PGD2 (10 μg in 30 μl) on their shaved backs and an intravenous injection of Evans blue solution (25 mg/kg) 30 min after administration of the test molecules (spiro derivative). Ninety minutes after the challenge, the animals were sacrificed. The skin of the back was removed and blood was sampled. The extravasated dye (punch diameter: 5 mm) was extracted by 0.2 ml of formamide and was quantified by fluorescence (E1: 585 nm, E2: 660 nm). The Evans Blue extravasation ratio was expressed as the following: skin/serum×1000.

Bounds are passed on as bounds.

In the case of `C=CCN1C(=O)CC2(C1=O)C(=O)N(CCCC(=O)O)c1ccc(Cl)cc12` (centres unmarked) [4-(1′-allyl-5-chloro-2,2′,5′-trioxospiro[indole-3,3′-pyrrolidin]-1(2H)-yl)butanoic acid], the inhibition (commonly the change of the read-out against control, counted positive when it falls) in assay [1] was greater than 70%. `C=CCN1C(=O)CC2(C1=O)C(=O)N(CCCC(=O)O)c1ccc(F)cc12` (centres unmarked) [4-(1′-allyl-5-fluoro-2,2′,5′-trioxospiro[indole-3,3′-pyrrolidin]-1(2H)-yl)butanoic acid]: the inhibition in assay [1] is greater than 70%. `O=C(O)CCCN1C(=O)C2(CC(=O)N(Cc3ccccc3)C2=O)c2cc(Cl)ccc21` (centres unmarked) [4-(1′-benzyl-5-chloro-2,2′,5′-trioxospiro[indole-3,3′-pyrrolidin]-1(2H)-yl)butanoic acid] came in with an inhibition in assay [1] greater than 70%. Turning to `O=C(O)CCCN1C(=O)C2(CC(=O)N(Cc3ccccc3)C2=O)c2cc(F)ccc21` (centres unmarked) [4-(1′-benzyl-5-fluoro-2,2′,5′-trioxospiro[indole-3,3′-pyrrolidin]-1(2H)-yl)butanoic acid], the inhibition in assay [1] is greater than 70%. Compound `O=C(O)CN1C(=O)C2(CC(=O)N(Cc3ccccc3)C2=O)c2cc(F)ccc21` (centres unmarked) [(1′-benzyl-5-fluoro-2,2′,5′-trioxospiro[indole-3,3′-pyrrolidin]-1(2H)-yl)acetic acid] yielded an inhibition in assay [1] greater than 70%. On the same count and under the same terms, then `COc1ccc2c(c1)C1(CC(=O)N(Cc3ccccc3)C1=O)C(=O)N2CC(=O)O` (centres unmarked) [(1′-benzyl-5-methoxy-2,2′,5′-trioxospiro[indole-3,3′-pyrrolidin]-1(2H)-yl)acetic acid], with greater than 70%. On to `O=C(O)CN1C(=O)C2(NC(=O)N(Cc3ccccc3)C2=O)c2cc(Cl)ccc21` (centres unmarked) [Compound 107, (1-benzyl-5′-chloro-2,2′,5-trioxospiro[imidazolidine-4,3′-indol]-1′(2′H)-yl)acetic acid], for which the affinity in assay [2] corresponds to a Ki of 300 nM. The same measure, in the same setting: the value for `O=C(O)CN1C(=O)C2(NC(=O)N(Cc3ccccc3F)C2=O)c2cc(Cl)ccc21` (centres unmarked) [Compound 108, [5′-chloro-1-(2-fluorobenzyl)-2,2′,5-trioxospiro[imidazolidine-4,3′-indol]-1′(2′H)-yl]acetic acid] was 4.8 nM. Take `O=C(O)CN1C(=O)[C@@]2(CC(=O)N(Cc3ccccc3F)C2=O)c2cc(Cl)ccc21` [Compound 109, (3R)-[5-chloro-1′-(2-fluorobenzyl)-2,2′,5′-trioxospiro[indole-3,3′-pyrrolidin]-1(2H)-yl]acetic acid]: the inhibition in vivo (in general, the percentage by which the read-out fell short of the control) at 30 mg/kg in assay [3] came to 38%. In addition, the Ki – broadly, the equilibrium dissociation constant of an inhibitor or competing ligand from its target – in assay [2] came to 28 nM. Regarding `O=C(O)CN1C(=O)[C@]2(CC(=O)N(Cc3ccccc3F)C2=O)c2cc(Cl)ccc21` [Compound 110, (3S)-[5-chloro-1′-(2-fluorobenzyl)-2,2′,5′-trioxospiro[indole-3,3′-pyrrolidin]-1(2H)-yl]acetic acid], in assay [2], the Ki was 8.4 nM. `O=C(O)CN1C(=O)[C@]2(CC(=O)N(Cc3cc(Cl)ccc3F)C2=O)c2cc(Cl)ccc21` [Compound 111, (3S)-[5-chloro-1′-(2-fluoro-5-chlorobenzyl)-2,2′,5′-trioxospiro[indole-3,3′-pyrrolidin]-1(2H)-yl]acetic acid] gave an inhibition in vivo at 30 mg/kg in assay [3] of 65%. The compound also displayed a Ki in assay [2] of 470 nM. The compound `O=C(O)CN1C(=O)[C@@]2(CC(=O)N(Cc3cc(Cl)ccc3F)C2=O)c2cc(Cl)ccc21` [Compound 112, (3R)-[5-chloro-1′-(2-fluoro-5-chlorobenzyl)-2,2′,5′-trioxospiro[indole-3,3′-pyrrolidin]-1(2H)-yl]acetic acid] had an inhibition in vivo at 30 mg/kg in assay [3] of 61%. Moreover, the Ki in assay [2] was 150 nM. The compound `COCCN1C(=O)CC2(C1=O)C(=O)N(CC(=O)O)c1ccc(Cl)cc12` (centres unmarked) [[5-chloro-1′-(2-methoxyethyl)-2,2′,5′-trioxospiro[indole-3,3′-pyrrolidin]-1(2H)-yl]acetic acid] came in with an inhibition in assay [1] greater than 70%.

`COCCOCN1C(=O)CC2(C1=O)C(=O)N(CC(=O)O)c1ccc(F)cc12` (centres unmarked) [[5-fluoro-1′-[(2-methoxyethoxy)methyl]-2,2′,5′-trioxospiro[indole-3,3′-pyrrolidin]-1(2H)-yl]acetic acid]: in assay [1], the inhibition was greater than 70%.
